Data as given in patent publication US4122179A, “Acid addition salts of vincamine and apovincamine” (priority 1976, dated 1978).

How the values were obtained:
[1] = Solubility; format: physicochemical; conditions: qualitative; for solubility in alcohol: alcohol (ethyl alcohol)
[2] = Hematic levels at different times after oral administration (absorption); format: in vivo, Wistar rat; conditions: 100 mg/kg expressed as vincamine/apovincamine, 5% carboxymethyl cellulose suspension
How it was run: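 Wistar rats dosed orally at 100 mg/kg (expressed as vincamine or apovincamine) as a suspension in 5% carboxymethyl cellulose. Blood levels measured chromatographically at 0, 30, 120, 240, 480 min, 10 h and 12 h to define absorption and time of maximum concentration.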

[3] = test system: vertebral arteria; assay: Cerebral vasodilating activity: hematic flow at the vertebral arteria after i.v. administration; format: in vivo; conditions: i.v. (femoral vein), 5 mg/kg of vincamine/apovincamine, anesthetized dog, 4 animals per compound
How it was run: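 In anesthetized dogs, groups of 4 per compound, left vertebral artery blood flow recorded with periarterial electromagnetic flowmeters after i.v. dosing. Values are percent change in flow.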

[4] = LD50 / acute toxicity, intraperitoneal route; format: in vivo; conditions: i.p.; for Toxicity (Gleason): Gleason class in words, classes not defined

Row | Substance | solubility in alcohol [1] | Max. conc. time [2] | % increase (percent variation of hematic flow, left vertebral arteria) [3] | LD50 [4] | Toxicity (Gleason) [4] | solubility in water [1] | solubility in the common (organic) solvents [1]
1 | Apovincamine-pectin (1:1 adduct) [Example 30.b] | little soluble | 60 min | 39.6% | 750 mg/kg | modest |  | 
2 | Apovincamine-pectin (2:1 adduct) [Example 31.b] | poorly soluble | 480 min | 28.2% | 900 mg/kg | light | insoluble | 
3 | Vincamine alginate [Example 23.a] |  | 20 min | 34.7% | 550 mg/kg | modest | insoluble | insoluble
4 | Vincamine pectin (1:1 adduct) [Example 30.a] |  | 20 min | 40.0% | 2000 mg/kg | negligible | insoluble | insoluble
5 | Vincamine tannate [Example 24.a] | soluble | 240 min | 26.2% | 700 mg/kg | modest |  | 
6 | Vincamine-pectin (2:1 adduct) [Example 31.a] |  | 240 min | 24.9% | 2000 mg/kg | negligible | practically insoluble | practically insoluble
